Laboratory results: PMC6658617, “Structure-Guided Identification of Resistance Breaking Antimalarial N‑Myristoyltransferase Inhibitors” (Cell Chemical Biology, 2019)
Like-named read-outs stand apart in the source and are kept apart here.

Key:
[1] = test system: P. falciparum 3D7 parasites (PfNMT[WT]); experiment: microbe, parasite or virus in culture; format: cell-based; conditions: for EC50: Plasmodium falciparum
[2] = test system: P. falciparum 3D7 PfNMT[G386E] clones; experiment: microbe, parasite or virus in culture; format: cell-based; conditions: for EC50: Plasmodium falciparum
[3] = test system: P. falciparum 3D7 parasites; parameters: method as in Wright et al., 2014; conditions: four times the EC50 concentration from beginning of 48-h cycle, ref Wright et al., 2014; cited from earlier work
[4] = test system: N-myristoylation in PfNMT[G386E] parasite clones; format: cell-based; conditions: 140 nM, 36–45 h post-invasion
[5] = test system: WT 3D7 parasites; experiment: Flow cytometry of Hoechst-stained parasites (number of nuclei); format: cell-based, P. falciparum; conditions: 140 nM for 45 h from ring stage
Method: Synchronized parasites were incubated with DMSO or NMTi and samples were fixed in 2% PFA, 0.2 % glutaraldehyde for 1 hour at 45 h PI. Subsequently samples were washed in PBS and labelled with 1:500 of 10 mg/mL Hoechst 33342 for 10 min with a subsequent wash in PBS. For analysis, a Flow Cytometry CL1 Fortessa D Analyzer from BD with FACSDiva software v8.0.1 was used with the 450-50 filter counting 50,000 RBC per sample. Data were analyzed using FlowJo LLC 2006-2015 to determine the median fluorescence intensity (MFI) of each sample after gating out the RBC population using an RBC only sample as a control. The MFI of each sample was divided by the MFI of a control sample of synchronized rings with a known MFI of one nucleus.

[6] = test system: N-myristoylation in WT 3D7 parasites; experiment: YnMyr metabolic labelling of NMT substrates; format: cell-based, P. falciparum; conditions: 140 nM, 36–45 h post-invasion
Method: Synchronized populations of stage-specific parasites were labelled with 25 μM of YnMyr for the specified length of time. Parasites were then lysed in 0.15 % saponin for 10 min on ice. The pellet was washed until the supernatant was colorless and then stored at -80°C. Thawed parasite pellets were extracted in 1 % Triton X-100, 0.1 % SDS in PBS on ice for 20 min with 1 min sonication. The protein concentration of the lysate was measured by BCA assay and adjusted to 1 mg/mL with PBS. The capture reagent was ‘clicked’ (100 μM capture reagent AzRB2, 1 mM CuSO4, 1 mM TCEP, 100 μM TBTA), the reaction was quenched with EDTA, and then precipitated proteins were washed with ice cold methanol as described previously ([Heal et al., 2011], [Wright et al., 2015]). Proteins were re-dissolved in 2 % SDS, 10 mM DTT, in PBS at 1 mg/mL and heated for 7 min at 95°C in sample loading buffer prior to SDS-PAGE.
Following the click reaction, the protein solution in PBS containing 2 % SDS, 10 mM DTT was treated with 0.2 M NaOH for 1 h at room temperature with vortexing. Samples were neutralized with an equivalent volume and concentration of HCl and diluted with PBS to 1 mg/mL prior to gel analysis.

[7] = test system: P. falciparum Dd2 parental line; experiment: microbe, parasite or virus in culture; format: cell-based; conditions: EC50 after 72 h (n = 3)
[8] = target: T1, PvNMT[G386E] (Plasmodium vivax, UniProt A5K1A2, G386E); format: binding, P. vivax
[9] = target: T1, PvNMT[G386E]; experiment: Thermal shift assay; format: binding, P. vivax; conditions: 5 μM compound
[10] = target: HsNMT2 (Homo sapiens, UniProt O60551); format: biochemical; conditions: selectivity, CPM assay
[11] = target: T2, PvNMT[WT] (Plasmodium vivax, UniProt A5K1A2); format: binding; conditions: SPR sensorgrams
T2 construct: hexaHis (3C protease-cleavable) (N); made in house; host or cells: E. coli Rosetta-gami (DE3), pET11a

[12] = target: T1, PvNMT[G386E]; experiment: biochemical; format: biochemical, P. vivax
[13] = target: T2, PvNMT[WT]; experiment: biochemical; format: binding; conditions: 5 μM compound, absence of MyrCoA; read-out: thermal stabilization (ΔTm) of PvNMT[WT]
[14] = test system: IMP-1002-resistant P. falciparum Dd2 parasites (uncloned population and clones, NMT G386E); experiment: microbe, parasite or virus in culture; format: cell-based; conditions: for EC50: Plasmodium falciparum, DD2, 72 h
[15] = test system: P. falciparum 3D7 parasites; experiment: Parasite development and GAP45 immunofluorescence at four times EC50; format: cell-based; conditions: at four times the EC50 value (140 nM), 45 h PI
Method: For IFA, slides were air dried, fixed in 4 % paraformaldehyde (PFA) in PBS for 10–20 min, permeabilized in 0.1 % Triton X-100 in PBS for 10 min, and blocked with 3 % BSA in PBS for at least 30 min at 4°C. GAP45 detection was achieved using a primary rabbit anti-GAP45-antibody ([Rees-Channer et al., 2006]). Slides were mounted in ProLong® Gold Antifade mounting medium containing DAPI (4’,6-diamidino-2-phenylindole), and viewed on a Nikon Eclipse Ni-E imaging system with a Hamamatsu Orca-flash 4.0 digital camera and a Plan apo λ 100x/1.45 oil immersion objective. Images were captured using Nikon’s NIS-Elements imaging software generating Z-stack images of individual parasites, using deconvolution options and exporting the image as a tiff file, which was further edited using Adobe Photoshop.

[16] = test system: PfNMT[G386E] parasites; experiment: microbe, parasite or virus in culture; format: cell-based
[17] = target: HsNMT1 (Homo sapiens, UniProt P30419); format: biochemical; conditions: selectivity, CPM assay
[18] = 3D7, read-out: Growth assay PfNMT[WT] EC50
[19] = 3D7, read-out: Growth assay PfNMT[G386E] Clone 1 EC50
[20] = 3D7, read-out: Growth assay PfNMT[G386E] Clone 2 EC50

T1 sequence (A5K1A2 27-410 G386E): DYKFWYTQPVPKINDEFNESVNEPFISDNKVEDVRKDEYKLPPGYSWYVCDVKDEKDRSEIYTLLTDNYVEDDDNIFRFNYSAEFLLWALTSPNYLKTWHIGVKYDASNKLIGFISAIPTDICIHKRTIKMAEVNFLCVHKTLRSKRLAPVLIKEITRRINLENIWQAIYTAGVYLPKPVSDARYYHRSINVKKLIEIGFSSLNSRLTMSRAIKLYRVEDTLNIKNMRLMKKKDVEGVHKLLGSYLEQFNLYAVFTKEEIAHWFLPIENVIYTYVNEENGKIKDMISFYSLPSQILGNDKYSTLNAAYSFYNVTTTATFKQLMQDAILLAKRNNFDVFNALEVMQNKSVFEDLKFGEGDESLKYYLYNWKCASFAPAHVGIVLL
T2 sequence (A5K1A2 entry or part of it): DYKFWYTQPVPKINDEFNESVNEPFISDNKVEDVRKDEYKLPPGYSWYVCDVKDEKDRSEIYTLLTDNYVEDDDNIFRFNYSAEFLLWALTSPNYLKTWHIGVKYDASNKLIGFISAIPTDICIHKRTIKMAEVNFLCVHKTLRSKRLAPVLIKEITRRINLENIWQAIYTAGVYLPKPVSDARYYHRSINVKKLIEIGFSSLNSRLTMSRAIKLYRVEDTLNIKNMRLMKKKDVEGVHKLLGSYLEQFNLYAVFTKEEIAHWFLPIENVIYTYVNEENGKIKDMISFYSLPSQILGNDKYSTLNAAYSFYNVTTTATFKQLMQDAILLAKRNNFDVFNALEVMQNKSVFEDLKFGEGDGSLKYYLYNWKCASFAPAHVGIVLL
Sequence of HsNMT2 (O60551 whole entry): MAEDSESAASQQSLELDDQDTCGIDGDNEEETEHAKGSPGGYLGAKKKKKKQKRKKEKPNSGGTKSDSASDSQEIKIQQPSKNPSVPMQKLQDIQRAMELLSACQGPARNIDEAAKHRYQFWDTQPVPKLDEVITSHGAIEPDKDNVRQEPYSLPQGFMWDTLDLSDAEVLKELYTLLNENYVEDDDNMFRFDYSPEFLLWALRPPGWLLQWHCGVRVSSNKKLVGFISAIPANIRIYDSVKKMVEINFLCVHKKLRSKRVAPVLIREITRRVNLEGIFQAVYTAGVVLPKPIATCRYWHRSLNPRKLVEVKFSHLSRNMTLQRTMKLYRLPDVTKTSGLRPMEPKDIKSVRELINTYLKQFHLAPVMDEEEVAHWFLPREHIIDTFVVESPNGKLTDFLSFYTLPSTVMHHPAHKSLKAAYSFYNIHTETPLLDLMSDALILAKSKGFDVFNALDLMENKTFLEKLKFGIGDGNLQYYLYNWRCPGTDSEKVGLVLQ
Sequence of HsNMT1 (P30419 whole entry): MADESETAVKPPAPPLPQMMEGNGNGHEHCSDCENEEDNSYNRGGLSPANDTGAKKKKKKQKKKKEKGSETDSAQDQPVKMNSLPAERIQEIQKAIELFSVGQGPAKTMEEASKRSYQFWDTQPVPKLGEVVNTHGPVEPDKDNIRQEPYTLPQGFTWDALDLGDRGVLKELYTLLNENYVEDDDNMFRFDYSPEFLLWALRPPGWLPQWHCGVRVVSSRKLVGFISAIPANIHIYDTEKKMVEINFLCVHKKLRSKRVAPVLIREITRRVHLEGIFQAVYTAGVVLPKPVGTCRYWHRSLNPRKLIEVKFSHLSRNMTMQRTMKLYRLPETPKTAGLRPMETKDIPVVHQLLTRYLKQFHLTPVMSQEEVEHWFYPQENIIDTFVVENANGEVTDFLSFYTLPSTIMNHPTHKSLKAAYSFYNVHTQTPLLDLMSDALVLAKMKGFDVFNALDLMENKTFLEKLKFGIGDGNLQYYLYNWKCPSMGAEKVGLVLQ

Cc1nn(C)c(C)c1NS(=O)(=O)c1c(Cl)cc(-c2ccnc(N3CCNCC3)c2)cc1Cl [DDD85646, reference compound]
EC50 [1, 18]: 69 nM
EC50 [2, 19]: 91 nM
EC50 [2, 20]: 103 nM
nuclei at stalled pseudoschizont stage [3]: 4–6 nuclei

Cc1nn(C)c(C)c1CCOc1cc(F)ccc1-c1ccc2c(c1)c(CN(C)C)nn2C [IMP-1002, 1-(5-(4-fluoro-2-(2-(1,3,5-trimethyl-1H-pyrazol-4-yl)ethoxy)phenyl)-1-methyl-1H-indazol-3-yl)-N,N-dimethylmethanamine]
YnMyr labeling in PfNMT[G386E] parasite clones [4]: no reduction in labeling
number of nuclei versus DMSO control, WT parasites [5]: reduced number of nuclei
YnMyr labeling in WT parasites [6]: clear decrease in YnMyr labeling
EC50 [7]: 35 nM
EC50 ([7]; Plasmodium falciparum, DD2, 72 h): 20.4 ± 4.9 nM
decrease in affinity (KD PvNMT[G386E] / KD PvNMT[WT]) [8]: approximately 5 fold
thermal stabilization (ΔTm) of PvNMT[G386E] ([9]; absence of MyrCoA): 1.8 °C
ΔΔTm between PvNMT[WT] and PvNMT[G386E] ([9]; absence of MyrCoA (Table S4A), in favor of WT): > 7.0 °C
HsNMT2/PvNMT fold difference in IC50 [10]: 3.84
dissociation rate with PvNMT[WT] [11]: slow dissociation rate
fold more potent in killing parasites than DDD85646 [1]: 4 fold
EC50 [1, 18]: 9.6 nM
EC50 ([1]; 3D7 parasites, initial EC50 determination (Figures 2A, S2A), read-out: parasite growth EC50): 34 nM
IC50 ratio of G386E/WT on average [12]: 2.6
Ratio PvNMT[G386E]/PvNMT[WT] IC50, Replicate 1 [12]: 3.1
Ratio PvNMT[G386E]/PvNMT[WT] IC50, Replicate 2 [12]: 3.4
Ratio PvNMT[G386E]/PvNMT[WT] IC50, Replicate 3 [12]: 1.4
IC50 ([12]; PvNMT[G386E] IC50, Replicate 1): 6 nM
IC50 ([12]; PvNMT[G386E] IC50, Replicate 2): 7.1 nM
IC50 ([12]; PvNMT[G386E] IC50, Replicate 3): 6.9 nM
Ratio PfNMT[G386]/PfNMT[WT] EC50, Clone 1 ([2]; EC50 of [G386E]/[WT], Clone 1): 24
Ratio PfNMT[G386]/PfNMT[WT] EC50, Clone 2 ([2]; EC50 of [G386E]/[WT], Clone 2): 21
EC50 [2, 19]: 230 nM
EC50 [2, 20]: 201 nM
ΔTm at 5 µM [13]: > 8.8 °C
EC50 ([14]; read-out: EC50 Clone 01): 270 ± 40 nM
EC50 ([14]; read-out: EC50 Clone 02): 300 ± 140 nM
EC50 ([14]; read-out: EC50 Clone 03): 240 ± 63 nM
EC50 ([14]; read-out: EC50 uncloned population): 320 ± 50 nM
increase in EC50 of IMP-1002-resistant clones ([14]; resistant Dd2 clones versus Dd2 parental line): 14 fold
accumulation of NMT substrate GAP45 [15]: inhibiting accumulation
number of nuclei versus DMSO control, PfNMT[G386E] parasites ([16]; 140 nM for 45 h from ring stage): no difference
inhibition at 0.14 µM ([16]; Plasmodium falciparum, read-out: inhibition of [G386E] parasites): 0%
HsNMT1/PvNMT fold difference in IC50 [17]: 2.32
